Test: Stability study for amorphous trisodium sacubitril valsartan complex (HPLC purity and PXRD on storage)
Type: physicochemical
Description: In another embodiment, the present invention provides a method of packing amorphous form of sacubitril valsartan trisodium complex, comprising: placing amorphous form of sacubitril valsartan trisodium complex in LDPE bag under nitrogen atmosphere; placing the product containing Low-density polyethylene (LDPE) bag in a second LDPE bag under nitrogen atmosphere; keeping the silica gel packet between two LDPE bags and sealing; placing the second sealed bag in a triple laminated bag and sealing.
The X-Ray powder diffraction can be measured using PANalytical X'per^3pro X-ray powder Diffractometer equipped with a Cu-anode ([λ]=1.54 Angstrom), X-ray source operated at 45 kV, 40 mA. Two-theta calibration is performed using an NIST SRM 640c Si standard. The sample was analyzed using the following instrument parameters: measuring range=3-45° 20; step size=0.01°; and Time per step=23 sec.
In another embodiment, the present invention provides Sacubitril sodium and amorphous form of sacubitril-valsartan trisodium complex obtained by the above process, as analyzed using high performance liquid chromatography (“HPLC”) with the conditions are tabulated below:
The amorphous form of trisodium sacubitril valsartan complex is packed in LDPE bag under nitrogen atmosphere and placed in another LDPE bag, filled with nitrogen and kept silica gel packet between the bags, tied with strip seal. Kept the bag in triple laminated sunlight barrier bag and sealed with heat sealer. The stability of the samples was tested at 25±2° C./60±5% RH and 40±2° C./75±5% RH respectively.

[1] = 25 ± 2° C./60 ± 5% RH, 1st month
[2] = 25 ± 2° C./60 ± 5% RH, 3rd month
[3] = 25 ± 2° C./60 ± 5% RH, 6th month
[4] = 40 ± 2° C./75 ± 5% RH, 1st month
[5] = 40 ± 2° C./75 ± 5% RH, 3rd month
[6] = 40 ± 2° C./75 ± 5% RH, 6th month

HPLC purity (%) [1]: 99.95%
PXRD [1]: Amorphous
HPLC purity (%) [2]: 99.94%
PXRD [2]: Amorphous
HPLC purity (%) [3]: 99.93%
PXRD [3]: Amorphous
HPLC purity (%) (25 ± 2° C./60 ± 5% RH, Initial): 99.94%
PXRD (25 ± 2° C./60 ± 5% RH, Initial): Amorphous
HPLC purity (%) [4]: 99.95%
PXRD [4]: Amorphous
HPLC purity (%) [5]: 99.93%
PXRD [5]: Amorphous
HPLC purity (%) [6]: 99.90%
PXRD [6]: Amorphous
HPLC purity (%) (40 ± 2° C./75 ± 5% RH, Initial): 99.94%
PXRD (40 ± 2° C./75 ± 5% RH, Initial): Amorphous
solid form on storage (packed in LDPE/triple laminated bags, up to 6 months at real and accelerated conditions, up to about 40° C., about 25% to about 75% RH): the amorphous character was retained
stability at real time and accelerated conditions (stored at 25±2° C./60±5% RH for 6 months and at 40±2° C./75±5% RH for 6 months): stable
Substance: sacubitril valsartan trisodium complex

Source: US11318116B2, “Stable amorphous form of sacubitril valsartan trisodium complex and processes for preparation thereof” (Laurus Labs Limited, priority 2016, dated 2022)
